Earlier results, collected in patent publication US20170100348A1, “Treatment Regime for Chronic Sinusitis” (priority 2015, published 2017).

Experiments:
[1] = tested on: Pseudomonas aerunginosa; settings: background statement, FIG. 1
[2] = tested on: Pseudomonas aeruginosa; settings: bacteria and phenolic compound incubated together on a plate
[3] = tested on: streptococcus mutans
[4] = tested on: fungi
[5] = tested on: microbial organisms; settings: background statement

| Compound | concentration with activity against Pseudomonas aerunginosa [1] | biofilm formation compared to the control [2] | preventing biofilm formation [3] | fungicidal concentration [4] | bacteriocidal concentration [5] | bacteriostatic concentration [5] |
| --- | --- | --- | --- | --- | --- | --- |
| Oc1ccccc1 [Phenol] | 0.5-1.0% | significant reduction in formation of biofilm | effective | greater than 1.3% | 0.04-1.0% | greater than 0.02% |
| O=C(O[C@@H]1Cc2c(O)cc(O)cc2O[C@@H]1c1cc(O)c(O)c(O)c1)c1cc(O)c(O)c(O)c1 [epigallocatechin gallate] | – | significant reduction in formation of biofilm | – | – | – | – |
| O=C(OC[C@H]1O[C@@H](OC(=O)c2cc(O)c(O)c(OC(=O)c3cc(O)c(O)c(O)c3)c2)[C@H](OC(=O)c2cc(O)c(O)c(OC(=O)c3cc(O)c(O)c(O)c3)c2)[C@@H](OC(=O)c2cc(O)c(O)c(OC(=O)c3cc(O)c(O)c(O)c3)c2)[C@@H]1OC(=O)c1cc(O)c(O)c(OC(=O)c2cc(O)c(O)c(O)c2)c1)c1cc(O)c(O)c(OC(=O)c2cc(O)c(O)c(O)c2)c1 [tannic acid] | – | significant reduction in formation of biofilm | – | – | – | – |
| Catechin | – | significant reduction in formation of biofilm | – | – | – | – |
